Patent US5045566A, “Novel imidate insecticides” (ICI Americas Inc., priority 1989, dated 1991)

What was measured:
Format in all cases: in vivo
[1] = tested on: Black Bean Aphid [Aphis fabae (Scop.)]; assay: Black bean aphid spray test on nasturtium (BBA), 48 hours; settings: percent of test compound in sprayed solution
Summary of the method: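 LC50, given as percent test compound in the sprayed liquid, was calculated from dosage-mortality curves using concentrations from 0.05% downward. Sprays in 50:50 acetone-water went to runoff on ~5 cm nasturtiums carrying 25-50 aphids of mixed ages, one day after infestation. Deaths were counted 48 h later under greenhouse conditions.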

[2] = tested on: Cabbage Looper [Trichoplusia ni (Hubner)]; assay: Cabbage looper leaf dip (CL), 3-5 days; settings: percent in solution, second-instar larvae
Summary of the method: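 Compounds in 50-50 acetone-water were applied by dipping squash cotyledons (about 1×1.5 in) for 2-3 s; dried leaves went into petri dishes on moist filter paper with 5 second-instar larvae under high humidity. Mortality was scored after 3-5 days; LC50 from dosage-mortality curves, as percent compound in solution.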

[3] = tested on: Housefly [Musca domestica]; assay: Housefly contact mortality in dishes (HF), 48 hours; settings: μg of test compound per 25 female flies
Summary of the method: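 Residual contact test: acetone dilution, 0.01% peanut oil spreader, solvent evaporated; 25 ♀ flies (1-2 d old) per cage; sugar-water plug; 48 h mortality read. LC50 in μg/25 female flies, from dose-mortality curves; top dose 100 μg/25 flies.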

[4] = tested on: Aster Leafhopper [Macrosteles fascifrens (Stal)]; assay: Aster leafhopper on dipped oat seedlings (LH), 48 hours; settings: percent in solution, adults/nymphs
Summary of the method: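 Three ~10 cm oat seedlings per cup were dipped 2-3 seconds in 50-50 acetone-water compound solutions, dried, and caged with ten adult/nymph leafhoppers. Mortality was counted after 48 hours at concentrations from 0.05% downward. LC50, as percent compound in solution, came from dosage-mortality curves.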

[5] = tested on: Tobacco Budworm [Heliothis virescens (Fabricius)] eggs; assay: Tobacco budworm eggs (TBW-E); settings: percent in solution; 2-day old eggs
Summary of the method: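 Paper towel patches bearing 2-day old eggs were dipped in acetone solutions of compound, then set in petri dishes over larval rearing medium at 78° F. Mortality was scored once all control eggs had hatched and larvae were feeding. LC50, from dosage-mortality curves, is given as percent compound in solution.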

[6] = tested on: Maize weevil [Sitophilus zeamais (Motschulsky)]; assay: Maize weevil on dipped corn seeds (MW), 48 hours; settings: percent in solution, adult weevils
Summary of the method: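 LC50, given as percent of compound in dipping solution, comes from dosage-mortality curves over concentrations descending from 0.01%. Four corn seeds soaked 2-3 s in 50:50 acetone:water solution were dried and held with 10 adult weevils, about 25° C, mortality read after 48 h.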

SMILES | LC50 BBA [1] [%] | LC50 CL [2] [%] | LC50 HF [3] [µg] | LC50 LH [4] [%] | LC50 TBW E (eggs) [5] [%] | LC50 MW [6] [%]
CSc1cccc(N=C(OCc2ccc(F)c(Oc3ccccc3)c2)C(C)C)c1 [Compound 362] | 0.005 | > 0.1 | < 100 | > 0.05 | > 0.1 | > 0.01
COc1ccc(N=C(OCc2ccc(F)c(Oc3ccc(F)cc3)c2)C(C)C)cc1OC [Compound 363] | 0.005 | > 0.1 | < 100 | > 0.05 | > 0.1 | > 0.01
CC(C)C(=Nc1ccc(Br)c(C(F)(F)F)c1)OCc1ccc(F)c(Oc2ccc(F)cc2)c1 [Compound 364] | 0.001 | 0.00045 | < 100 | < 0.05 | 0.025 | > 0.01
CC(C)C(=Nc1ccc(C(F)(F)F)cc1)OCc1cccc(Oc2ccc(Cl)cc2)c1 [Compound 365] | 0.003 | 0.00025 | > 100 | < 0.05 | 0.038 | > 0.01
CC(C)C(=Nc1ccc2c(c1)OCO2)OCc1ccc(F)c(Oc2ccc(Cl)cc2)c1 [Compound 366] | 0.0006 | 0.0007 | < 100 | 0.05 | 0.012 | > 0.01
CC(C)C(=Nc1ccc2c(c1)OCO2)OCc1cccc(Oc2ccc(C(C)(C)C)cc2)c1 [Compound 367] | > 0.05 | < 0.1 | > 100 | > 0.05 | > 0.1 | > 0.01
CC(C)C(=Nc1ccc(F)cc1)OCCc1cccc(Oc2ccccc2)c1 [Compound 456] | 0.01 | 0.017 | > 100 | > 0.05 | > 0.05 | > 0.01
CC(C)C(=Nc1ccc(F)c(Cl)c1)OCc1ccc(OCc2ccccc2)cc1 [Compound 475] | > 0.05 | 0.008 | > 100 | > 0.05 | > 0.1 | > 0.01
C=CCOc1cccc(COC(=Nc2ccc(F)c(Cl)c2)C(C)C)c1 [Compound 479] | > 0.05 | 0.013 | 66 | > 0.05 | > 0.1 | > 0.01
CC(C)C(=Nc1ccc(F)c(Cl)c1)OCc1cccc(OCc2ccc(F)cc2)c1 [Compound 490] | > 0.05 | 0.0045 | > 100 | > 0.05 | > 0.1 | > 0.01
CC(C)C(=Nc1ccc(F)c(Cl)c1)OCc1cccc(Oc2ccc(Br)cc2)n1 [Compound 492] | > 0.05 | 0.00028 | 15 | > 0.05 | 0.015 | > 0.01
CC(C)C(=Nc1ccc(F)c(Cl)c1)OCc1cccc(Nc2ccc(F)cc2)c1 [Compound 512] | > 0.05 | 0.003 | 35 | > 0.05 | > 0.1 | > 0.01
CC(C)C(=Nc1cccc(C(F)(F)F)c1)OCc1cccc(Nc2ccc(F)cc2)c1 [Compound 513] | > 0.05 | 0.007 | 81 | > 0.05 | > 0.1 | > 0.01
CC(C)C(=Nc1ccc(Cl)c(Cl)c1)OCc1cccc(Nc2ccc(F)cc2)c1 [Compound 514] | 0.003 | 0.008 | > 100 | > 0.05 | > 0.1 | > 0.01
CC(C)C(=Nc1ccc2c(c1)OCO2)OCc1cc(Oc2ccc(F)cc2)ccn1 [Compound 515] | > 0.05 | 0.0015 | 28 | > 0.05 | > 0.1 | > 0.01
CC(C)C(=Nc1ccc(F)c(Cl)c1)OCc1cc(Oc2ccc(Cl)cc2)ccn1 [Compound 516] | > 0.05 | 0.008 | > 100 | > 0.05 | > 0.1 | > 0.01
CC(C)C(=Nc1cccc(C(F)(F)F)c1)OCc1ccnc(Oc2ccc(Cl)cc2)c1 [Compound 517] | > 0.05 | 0.0008 | 80 | > 0.05 | 0.04 | > 0.01
CC(C)C(=Nc1cccc(C(F)(F)F)c1)OCc1cccc(Oc2ccc(Cl)cn2)c1 [Compound 518] | > 0.05 | 0.00075 | > 100 | > 0.05 | > 0.1 | > 0.01
C#CC(OC(=Nc1cccc(C(F)(F)F)c1)C(C)C)c1cccc(Oc2ccccc2)c1 (stereo not drawn) [Compound 519] | > 0.05 | 0.0037 | 60 | > 0.05 | > 0.1 | > 0.01
CCC(=Nc1ccc(F)c(F)c1)OCc1coc(Cc2ccccc2)c1 [Compound 524] | > 0.05 | > 0.1 | 5.2 | > 0.05 | > 0.1 | > 0.01
CC(C)(C)C(=Nc1ccc(F)c(F)c1)OCc1coc(Cc2ccccc2)c1 [Compound 525] | > 0.05 | < 0.1 | > 100 | > 0.05 | > 0.1 | > 0.01
CC(=Nc1ccc(F)c(F)c1)OCc1coc(Cc2ccccc2)c1 [Compound 526] | > 0.05 | > 0.1 | 8.3 | > 0.05 | > 0.1 | > 0.01
CC(C)C(=Nc1ccc(F)c(Cl)c1)OCc1cccc(Oc2ccc(Cl)cn2)c1 [Compound 527] | 0.03 | 0.00065 | 47 | > 0.05 | 0.035 | > 0.01
CC(C)C(=Nc1ccc2c(c1)OCO2)OCc1cccc(Oc2ccc(Cl)cn2)c1 [Compound 532] | > 0.05 | < 0.1 | > 100 | > 0.05 | > 0.1 | > 0.01
C#CC(OC(=Nc1ccc(F)c(Cl)c1)C(C)C)c1cccc(Oc2ccccc2)c1 (stereo not drawn) [Compound 533, N-(3-chloro-4-fluorophenyl)-O-[1-(3-phenoxyphenyl)-2-propyn-1-yl]isobutyrimidate] | > 0.05 | > 0.1 | 60 | > 0.05 | > 0.1 | > 0.01
CC(C)C(=Nc1ccc(F)c(Cl)c1)OCC#CCOc1ccccc1 [Compound 534] | > 0.05 | < 0.1 | > 100 | > 0.05 | > 0.1 | > 0.01
CC(C)C(=Nc1ccc(C(F)(F)F)cc1)OCc1cccc(Cc2ccccc2)c1 [Compound 535] | > 0.05 | > 0.1 | 41 | > 0.05 | > 0.1 | > 0.01
Cc1c(COC(=Nc2ccc(C(C)(C)C)cc2)C(C)C)cccc1-c1ccccc1 [Compound 536] | < 0.05 | < 0.1 | > 100 | > 0.05 | > 0.1 | > 0.01
CC(C)C(=Nc1ccc(F)c(Cl)c1)OCc1cccc(Cc2ccccc2)c1 [Compound 537] | > 0.05 | > 0.1 | 20 | > 0.05 | > 0.1 | > 0.01
